Assay results as given in patent US7682785B2, “Method for predicting effectiveness of chemotherapy using anticancer agent” (Sysmex Corporation, priority 2005, dated 2010).
Where “and” joins values, the source holds several entries; their conditions need not be identical. Equal values may be shown once.

What was measured:
CDK1 = CDK1 specific activity in tumor tissue lysate of mouse heterograft after paclitaxel administration; type: in vivo, human; conditions: 24 hours after 20 mg/kg single administration, one value per mouse
Description: A tissue specimen containing target tumor cells was prepared in a 1.5 ml-Eppendorf tube so that 100 μg lysate in terms of total protein mass was dissolved in a buffer solution of 500 μl. To the buffer solution, added were sepharose beads (Bio-Rad, Calif., U.S.A.) coated with 20 μl of a protein A and 2 μg of antibodies specific to the CDK whose activity was to be measured, i.e. polyclonal anti-CDK1-antibodies or polyclonal anti-CDK2-antibodies (Santa Cruz Biotechnology, Santa Cruz, Calif.). After the addition, the solution was reacted at 4° C. for 1 hour. Thereafter, the beads were washed with a buffer solution (0.1% NP-40 and 50 mM tris-HCl adjusted pH 7.0) three times, followed by re-suspension in a kinase buffer of 15 μl. Thus, a sample containing the beads to which the target CDK binds was yielded.
(§1) In the sample, all the CDK (hereinafter, if distinction is not necessary, simply called as “CDKs”) including CDK itself, activated CDK to which cycline binds, complexes of activated CDK and CDK inhibitor, and complexes of CDK and CDK inhibitor were bound to the antibodies, thereby fixing the CDKs to the beads. The activity of the CDKs in the sample was measured by the following measurement method.
(§2) Prepared was a substrate solution containing 5 mM adenosine 5′-O-([…]) (ATP-γS (Sigma)), a buffer solution (20 mM tris-HCl (pH: 7.4), 0.1% Triton-X-100), and 10 μg histon H1 (Upstate Biotechnology, Lake Placid, N.Y.) as a substrate for CDK1 and CDK2. The substrate solution was added to the aforementioned sample solution containing the CDKs up to the total volume of 50 μl. The resulting sample solution was shaken for 10 minutes at 37° C. for incubation. As shown by the following formula, serine or threonine residue in the substrate was phosphorylated by the activated CDK, and monothiophosphorylated substrate was yielded.
(§3) After the reaction, the sample solution was centrifuged at 20,000 rpm for 20 seconds to precipitate the beads, and 18 μl of a supernatant in which monothiophosphates were dissolved was obtained. To 18 μl of the supernatant, added was 15 μl of a buffer solution (150 mM tris-HCl (pH: 9.2) and 5 mM EDTA). Further, the resultant solution was incubated in 10 mM iodoacetyl biotin solution (100 mM tris-HCl (pH: 7.5) and 1 mM EDTA) in a dark place for 90 minutes at room temperature. Thereby, sulfur ions in the thiophosphates in the monothiophosphorylated substrate were labeled by biotinylation. The reaction of the iodoacetyl biotin with the thiophosphates was stopped by adding […].
0.4 μg of the biotinylated thiophosphorylated substrate was blotted on a PVDF membrane by using a slot blotter for adsorption. The blotted membrane was blocked with 1% of bovine serum albumin (BSA) for 30 minutes, followed by reaction with avidin-FITC (Vector, Burlingame, Calif.) at 37° C. for 1 hour. […] After the washing, the image on the membrane was analyzed by a fluorescent image analyzer (Bio-Rad, Calif. U.S.A.). The activity of the CDKs was calculated based on a standard curve.
The standard curve was created by adsorbing a protein (biotinylated immunoglobulin) of a known amount to a PVDF membrane, labeling the protein with FITC in the same manner as mentioned above, and measuring the fluorescent intensity of the protein by the fluorescent image analyzer (Bio-Rad). 1 U of the CDK activity to be measured is a value representing the fluorescent intensity substantially equivalent to the fluorescent amount of the target protein of 1 ng. […]

[1] = test system: human-derived breast cancer cultured cells (cell C); assay: Effect of anticancer agent therapy for cancerous mice (change in tumor size), cell C heterograft; type: in vivo; conditions: cell C implanted subcutaneously in mice; 20 mg/kg once a day for 5 days; tumor size to the 11th day
Description: (§4) 5 kinds of human-derived breast cancer cultured cells (cells A to E) were subcutaneously implanted on the backs of forty-six mice (No. 1 to 46). The mice were raised for 21 to 28 days to engraft the breast cancer cells. […] Upon lapse of 24 hours after the administration, tissues (about 50 mg) in the size of 2.5 mm×2.5 mm was cut from the back of each mouse. Each of the tissues were homogenized using an electric homogenizer to dissolve dissolvable components in a buffer solution containing 0.1 w/v % nonidet P-40 (NP-40) (Calbiochem), 50 mM tris-HCl (pH: 7.4), 5 mM EDTA, 50 mM sodium fluoride, 1 mM sodium orothovanadate, and 100 μl/ml of protease inhibitor cocktail (Sigma, St. Louis, Mo.).
(§5) The tumor size was measured from the start of the administration to the 11th day after the start of the administration. The chemotherapeutic effectiveness was classified, according to the change in tumor size, into Type I (high chemosensitivity), Type II (medium chemosensitivity), Type III (slightly low chemosensitivity), and Type IV (low chemosensitivity). […] The classification results are shown in the column of “Effect of therapy” in Table 1.

[2] = test system: human-derived breast cancer cultured cells (cell A); assay: Effect of anticancer agent therapy for cancerous mice (change in tumor size), cell A heterograft; type: in vivo; conditions: cell A implanted subcutaneously in mice; 20 mg/kg once a day for 5 days; tumor size to the 11th day
Description: as §4, §5

[3] = test system: human-derived breast cancer cultured cells (cell B); assay: Effect of anticancer agent therapy for cancerous mice (change in tumor size), cell B heterograft; type: in vivo; conditions: cell B implanted subcutaneously in mice; 20 mg/kg once a day for 5 days; tumor size to the 11th day
Description: as §4, §5

[4] = test system: human-derived breast cancer cultured cells (cell D); assay: Effect of anticancer agent therapy for cancerous mice (change in tumor size), cell D heterograft; type: in vivo; conditions: cell D implanted subcutaneously in mice; 20 mg/kg once a day for 5 days; tumor size to the 11th day
Description: as §4, §5

[5] = test system: human-derived breast cancer cultured cells (cell E); assay: Effect of anticancer agent therapy for cancerous mice (change in tumor size), cell E heterograft; type: in vivo; conditions: cell E implanted subcutaneously in mice; 20 mg/kg once a day for 5 days; tumor size to the 11th day
Description: as §4, §5

CDK2 = CDK2 specific activity in tumor tissue lysate of mouse heterograft after paclitaxel administration; type: in vivo, human; conditions: 24 hours after 20 mg/kg single administration, one value per mouse
Description: A tissue specimen containing target tumor cells was prepared in a 1.5 ml-Eppendorf tube so that 100 μg lysate in terms of total protein mass was dissolved in a buffer solution of 500 μl. […] After the addition, the solution was reacted at 4° C. for 1 hour. Thereafter, the beads were washed with a buffer solution (0.1% NP-40 and 50 mM tris-HCl adjusted pH 7.0) three times, followed by re-suspension in a kinase buffer of 15 μl. Thus, a sample containing the beads to which the target CDK binds was yielded.
as §1, §2, §3
0.4 μg of the biotinylated thiophosphorylated substrate was blotted on a PVDF membrane by using a slot blotter for adsorption. The blotted membrane was blocked with 1% of bovine serum albumin (BSA) for 30 minutes, followed by reaction with avidin-FITC (Vector, Burlingame, Calif.) at 37° C. for 1 hour. Thereafter, the membrane was washed with 50 mM TBS (25 mM tris-HCl (pH: 7.4) and 150 mM NaCl) for 10 minutes three times. After the washing, the image on the membrane was analyzed by a fluorescent image analyzer (Bio-Rad, Calif. U.S.A.). The activity of the CDKs was calculated based on a standard curve.
The standard curve was created by adsorbing a protein (biotinylated immunoglobulin) of a known amount to a PVDF membrane, labeling the protein with FITC in the same manner as mentioned above, and measuring the fluorescent intensity of the protein by the fluorescent image analyzer (Bio-Rad). 1 U of the CDK activity to be measured is a value representing the fluorescent intensity substantially equivalent to the fluorescent amount of the target protein of 1 ng.
An initialized PVDF membrane (Millipore, Billerica, Mass.) obtained by immersing the membrane in TBS (25 mM tris-HCl (pH: 7.4) and 150 mM NaCl) was set to a well plate for slot blotter. […]

p21 = assay: Expression level of p21 (WAF1 ELISA) in tumor tissue lysate of mouse heterograft after paclitaxel administration; type: in vivo, human; set-up: unit not given here; conditions: 24 hours after 20 mg/kg single administration, one value per mouse
Description: Expression level of p21 is measured using CALIBIOCHEM p21 WAF 1 ELISA kit (EMD Bioscience Inc.).
WAF1 sample solutions (mixture solutions of specimen and WAF1 standard solution containing lyophilized WAF1) were prepared by diluting the WAF1 standard solution (20 unit/ml lyophilized WAF1) stepwise with the cell lysate as the specimen. In each of the sample solutions, the cell lysate was diluted 4-times or more.
Into 96-well plastic plate in which rabbit polyclonal antibodies (primary antibody) specific to WAF1 was coated, 100 μl each of the WAF1 sample solution and the WAF1 standard solution were individually seeded into the wells. The well plate was sealed and incubated at room temperature for 2 hours for reaction with the primary antibody.
After the well plate was washed with a cleaning buffer, which was prepared by adding 25 ml of a 20-times concentrated solution to 475 ml de-ionized water, three times, 100 μl of antibodies (biotinylated anti-WAF1 monoclonal antibodies) for detection of […] were added to each well. Thereafter, the well plate was sealed and allowed to react at room temperature for 1 hour.
After the reaction, the well plate was washed with the cleaning buffer three times, and then, 100 μl of a peroxidase-conjugated streptavidine diluent was added into each well, and the mixture was stirred moderately. Thereafter, the well plate was sealed and allowed to react at room temperature for 30 minutes. After reaction, unbound peroxidase-conjugated streptavidine was removed by washing with the cleaning buffer three times. And then, 100 μl of a substrate solution (pigment source substrate) was added into each well, and the mixture was reacted at room temperature for 30 minutes. Upon lapse of 30 minutes after the addition, 100 μl of a stop solution (2.5 N sulfuric acid) was poured into each well to stop the reaction. Then, absorbance of each well's contents was measured using a plate reader at dual wavelength of 450/540 nm.
The concentration of p21WAF1 in the WAF1 sample solutions was calculated based on a standard curve of the WAF1 standard solution.
as §4
After removing insoluble components by centrifuging at 15,000 rpm for 5 minutes at 4 ° C., the obtained supernatants (cell lysates) were used as specimens.
Activity and expression level of CDK1 and CDK2 respectively were measured with respect to the specimens obtained in the experiment (1) in accordance with the aforementioned measurement method, and the specific activity of CDK1 and the specific activity of CDK2 in the specimens were calcurated. Also, the expression level of p21 in the specimens was measured in accordance with the aforementioned measurement method.

With `CC(=O)O[C@H]1C(=O)[C@@]2(C)[C@H]([C@H](OC(=O)c3ccccc3)[C@]3(O)C[C@H](OC(=O)[C@H](O)[C@@H](NC(=O)c4ccccc4)c4ccccc4)C(C)=C1C3(C)C)[C@]1(OC(C)=O)CO[C@@H]1C[C@@H]2O` [paclitaxel] the “Specifc activity of CDK1” value (CDK1; cell A tumor tissue) was 11.79 mU/ng and 10.83 mU/ng and 17.50 mU/ng and 21.77 mU/ng and 16.12 mU/ng and 16.82 mU/ng and 13.55 mU/ng, the “Specifc activity of CDK1” value (CDK1; cell B tumor tissue) was 27.00 mU/ng and 31.56 mU/ng and 20.53 mU/ng and 13.39 mU/ng and 33.32 mU/ng and 32.01 mU/ng and 34.33 mU/ng and 34.21 mU/ng and 35.27 mU/ng and 25.40 mU/ng and 13.90 mU/ng and the “Specifc activity of CDK1” value (CDK1; cell C tumor tissue) was 25.48 mU/ng and 11.25 mU/ng and 22.64 mU/ng and 39.14 mU/ng and 21.35 mU/ng and 11.22 mU/ng and 13.77 mU/ng and 7.06 mU/ng and 16.60 mU/ng and 11.60 mU/ng and 15.29 mU/ng and 12.58 mU/ng and 41.80 mU/ng and 60.36 mU/ng and 36.09 mU/ng and 30.85 mU/ng. For the same compound, the “Specifc activity of CDK1” value (CDK1; cell D tumor tissue) was 10.75 mU/ng and 0.00 mU/ng and 7.10 mU/ng and 6.48 mU/ng and 22.16 mU/ng and 9.68 mU/ng and 10.04 mU/ng, the “Specifc activity of CDK1” value (CDK1; cell E tumor tissue) was 9.81 mU/ng and 2.45 mU/ng and 8.76 mU/ng and 7.92 mU/ng and 8.29 mU/ng and the “Therapy using anticancer agent: Effect of therapy” value (from here on “Therapy using anticancer agent”) [1] was “Type II”. The “Therapy using anticancer agent” value [2] was “Type I”, the “Therapy using anticancer agent” value [3] was “Type II” and the “Therapy using anticancer agent” value [4] was “Type III”. The “Therapy using anticancer agent” value [5] was “Type IV”, the “Specific activity of CDK2” value (CDK2; cell A tumor tissue) was 734.6 mU/ng and 634.1 mU/ng and 1083.2 mU/ng and 766.4 mU/ng and 407.1 mU/ng and 574.5 mU/ng and 545.0 mU/ng and the “Specific activity of CDK2” value (CDK2; cell B tumor tissue) was 156.2 mU/ng and 192.8 mU/ng and 109.1 mU/ng and 328.6 mU/ng and 64.8 mU/ng and 130.5 mU/ng and 171.6 mU/ng and 140.3 mU/ng and 157.9 mU/ng and 92.1 mU/ng and 41.9 mU/ng. The “Specific activity of CDK2” value (CDK2; cell C tumor tissue) was 163.6 mU/ng and 213.3 mU/ng and 209.9 mU/ng and 341.2 mU/ng and 106.9 mU/ng and 206.6 mU/ng and 140.6 mU/ng and 98.6 mU/ng and 114.8 mU/ng and 201.8 mU/ng and 129.9 mU/ng and 151.0 mU/ng and 138.8 mU/ng and 187.9 mU/ng and 124.6 mU/ng and 136.6 mU/ng, the “Specific activity of CDK2” value (CDK2; cell D tumor tissue) was 0.0 mU/ng (4×) and 80.1 mU/ng and 23.6 mU/ng and the “Specific activity of CDK2” value (CDK2; cell E tumor tissue) was 55.7 mU/ng and 50.2 mU/ng and 59.1 mU/ng and 0.0 mU/ng and 56.4 mU/ng. The “Expression level of p21” value (p21; cell A tumor tissue) was 1.43 and 1.34 and 1.93 and 1.28 and 0.00 and 0.86 and 1.26, the “Expression level of p21” value (p21; cell B tumor tissue) was 4.09 and 4.61 and 5.18 and 5.25 and 5.41 and 5.57 and 5.33 and 5.00 and 3.42 and 4.33 and 5.43 and the “Expression level of p21” value (p21; cell C tumor tissue) was 1.06 and 1.44 and 0.00 (7×) and 1.31 and 0.85 and 0.77 and 0.64 and 0.57 and 0.53 and 0.29. For the same compound, the “Expression level of p21” value (p21; cell D tumor tissue) was 8.76 and 7.21 and 7.62 and 7.34 and 6.39 and 5.40 and 0.74 and the “Expression level of p21” value (p21; cell E tumor tissue) was 34.45 and 10.96 and 15.33 and 17.25 and 15.25.
